Source: patent US20080287525A1, “Pharmaceuticals for treating or preventing oral diseases” (HAWLEY & HAZEL (BVI) COMPANY LIMITED, priority 2007, published 2008)

Tests used:
[1] = test system: Actinomyces viscosus (A. v) ATCC 27044; assay: Micro-dilution MIC test, A. v; format: cell-based; details: 37 °C, 18-24 h, unit not given, method gives concentrations in mg/L (ppm)
Method: (§1) A single colony was picked from the Trypticase Digested Soybean peptone agar blood plate (TSA5B) of ordinarily stored bacteria species and used to inoculate corresponding broth culture medium, which was cultivated in a microaerobic environment (P.g needs anaerobic cultivation) with 95% air, 5% CO2 at 37.0° C.±1.0° C., wherein S.m and S.sa were cultivated for 18-24 h, and the remaining five species were cultivated for 40-48 h. Then corresponding broth cultivate medium was used to adjust the turbidity of the bacteria suspension to 0.5 McFarland standard, equivalent to 1.0×10^8 CFU/mL.
(§2) The operating steps were:
(§3) a. Preparation of the stock solution of antibacterial pharmaceutical: 1% stock solution of various antibacterial pharmaceuticals was prepared with 100% pure ethanol as solvent. The prepared stock solution was filtered to eliminate bacteria, and was distributed into small portions to be used.
(§4) b. Range of measured concentration: the present experiment used 250 ppm as the ceiling measured concentration of the anti-bacterial pharmaceutical.
(§5) c. Measuring method: micro-dilution method. […]
(§6) The bacteria to be tested and standard bacteria were prepared using the same method as above. […] 0.12 mg/L, and the final inoculation quantity was about […] or 5×10^6 bacteria in each well. […]

[2] = test system: Streptococcus mutans (S. m) ATCC 25175; assay: Micro-dilution MIC test, S. m; format: cell-based; details: 37 °C, 18-24 h, unit not given, method gives concentrations in mg/L (ppm)
Method: as §1, §2, §3, §4, §5, §6

[3] = test system: Actinobacilus actinomycetemcomitans (A. a) ATCC 43717; assay: Micro-dilution MIC test, A. a; format: cell-based; details: 37 °C, 18-24 h, unit not given, method gives concentrations in mg/L (ppm)
Method: as §1, §2, §3, §4, §5, §6

[4] = test system: Actinomyces naeslundii (A. n) ATCC 12104; assay: Micro-dilution MIC test, A. n; format: cell-based; details: 37 °C, 18-24 h, unit not given, method gives concentrations in mg/L (ppm)
Method: as §1, §2, §3, §4, §5, §6

[5] = test system: Porphyromonas gingivalis (P. g) ATCC 33277; assay: Micro-dilution MIC test, P. g; format: cell-based; details: anaerobic, 37 °C, 18-24 h, unit not given, method gives concentrations in mg/L (ppm)
Method: as §1, §2, §3, §4, §5, §6

[6] = test system: Fusobacterium nucleatum subsp. Polymorphum (F. n) ATCC 10953; assay: Micro-dilution MIC test, F. n; format: cell-based; details: 37 °C, 18-24 h, unit not given, method gives concentrations in mg/L (ppm)
Method: as §1, §2, §3, §4, §5, §6

[7] = test system: Streptococcus sanguis (S. sa) ATCC 10556; assay: Micro-dilution MIC test, S. sa; format: cell-based; details: 37 °C, 18-24 h, unit not given, method gives concentrations in mg/L (ppm)
Method: as §1, §2, §3, §4, §5, §6

GM-CSF = assay: Anti-inflammatory test in KB cells, LUMINEX, GM-CSF; format: cell-based, human; details: KB cell supernatant, the larger the value, the stronger the anti-inflammatory ability
Method: (§7) Anti-inflammatory activity was assessed using the KB cell (the epidermis cancer cell in human oral cavity). During the experiment, the KB cell inoculated in the cultivating plate was treated with or without positive control or Mulberrofuran G. After the treatment, the supernatant of the cultivating medium was collected and stored in −80° C. refrigerator. Inflammation was assessed by measuring several inflammation markers: Prostaglandin E2 (PGE2) in the supernatant was detected by Enzyme-linked immunsorbent assay, and LUMINEX™ multifunctional liquid-phase chip analysis system was used for the detection of granulocyte monocyte colony stimulating factor (GM-CSF), tumor necrosis factor-alpha (TNF-α), and interleukins 1-beta and 6 ([…] and IL-6).
(§8) LUMINEX™ multifunctional liquid-phase chip analyses of GM-CSF, TNF-α, IL-1 and IL-6: The 96-well plate was enclosed with enclosing liquid for 30 minutes. Fluorescent microspheres were added into the 96-well plate after dilution. The standard and the samples to be measured were added, and incubated overnight at 4° C. The next day, the supernatant was discarded and 50 μL GM-CSF, TNF-α, IL-1β and IL-6 antibodies were added to each well. After being rinsed for 4 times, the 96-well plate was placed in a shaking table, which was in ambient temperature, to keep the plate away from light for one hour. […]

IL-1β = assay: Anti-inflammatory test in KB cells, LUMINEX, IL-1β; format: cell-based, human; details: KB cell supernatant, the larger the value, the stronger the anti-inflammatory ability
Method: as §7, §8

IL-6 = assay: Anti-inflammatory test in KB cells, LUMINEX, IL-6; format: cell-based, human; details: KB cell supernatant, the larger the value, the stronger the anti-inflammatory ability
Method: as §7, §8

TNF-α = assay: Anti-inflammatory test in KB cells, LUMINEX, TNF-α; format: cell-based, human; details: KB cell supernatant, the larger the value, the stronger the anti-inflammatory ability
Method: as §7, §8

## CC1=C[C@H]2c3c(O)cc(-c4cc5ccc(O)cc5o4)cc3O[C@@]3(c4ccc(O)cc4O)Oc4cc(O)ccc4[C@H](C1)[C@@H]23 [Mulberrofuran G, 3aH-Benzo[3,4][2]benzopyrano[1,8-bc][1]-benzopyran-4,11-diol, 8a-(2,4-dihydroxphenyl)-1,8a,13b,13c-tetrahydro-6-(6-hydroxy-2-benzofuranyl)-2-methyl-, (3a,S,8aS,13bS,13cR)-]
[1]
  MIC, A. v ATCC 27044: 2.4
[2]
  MIC, S. m ATCC 25175: 3.9
[3]
  MIC, A. a ATCC 43717: 2.4
[4]
  MIC, A. n ATCC 12104: 1.9
[5]
  MIC, P. g ATCC 33277: 1.9
[6]
  MIC, F. n ATCC 10953: 7.8
[7]
  MIC, S. sa ATCC 10556: 7.8
GM-CSF
  anti-inflammatory effect, GM-CSF: 8%
IL-1β
  anti-inflammatory effect, IL-1β: 18%
IL-6
  anti-inflammatory effect, IL-6: 48%
TNF-α
  anti-inflammatory effect, TNF-α: 90%

## Oc1cc(Cl)ccc1Oc1ccc(Cl)cc1Cl [Triclosan, reference compound]
IL-1β
  anti-inflammatory effect, IL-1β: 7%
IL-6
  anti-inflammatory effect, IL-6: 31%
TNF-α
  anti-inflammatory effect, TNF-α: 81%
